Experimental findings from patent publication US8916526B2, “Flavanone derivative” (National University Corporation Okayama University, priority 2009, dated 2014) are described below.

In brackets after ≈: the same amount, converted by molar mass.

Series [1] relates to various strains such as MRSA, VISA, MSSA and VRE. Briefly: In vitro infectivity assay (MIC), Exp. Ex. 1-1, strains taken together. In kind it is cell-based, Staphylococcus aureus, enterococci. The conditions noted are these: summary of Table 1. The method, then: The antibacterial activities were measured based on broth dilution techniques of international standards (Clinical Laboratory Standards Institute: CLSI). The activities were shown by minimum inhibitory concentrations (MICs) determined by inoculating the above-mentioned strains at a concentration of about 10^5 […] into Mueller-Hinton broth (manufactured by Difco) containing 0.85% NaCl in 96-well microplates and incubating the plates at 35° C. for 24 hours. Measurement was carried out three times.
The antibacterial activities of the compounds of the present invention against various strains such as methicillin-resistant Staphylococcus aureus (MRSA), vancomycin intermediate-resistant Staphylococcus aureus (VISA), methicillin-sensitive Staphylococcus aureus (MSSA), and vancomycin-resistant enterococci (VRE) were examined. Of the bacteria used in MIC measurement in this test example, clinical bacteria of MRSA (OM481 strain and OM584 strain) were supplied from Okayama University Hospital (Japan). An MRSA strain N315, a vancomycin intermediate-resistant Staphylococcus aureus (VISA) strain Mu50, and a methicillin-sensitive Staphylococcus aureus (MSSA) strain FDA 209P were used as controls. Vancomycin-resistant enterococcus (VRE) strains NCTC 12201 and FN-1 were supplied from the National Institute of Infectious Disease (Japan).

Series [2] concerns MRSA OM58. Briefly: In vitro infectivity assay (MIC), broth dilution, Exp. Ex. 1-1. The conditions noted are these: for MIC MRSA OM58: Mueller-Hinton broth, 35° C., 24 hours. The format is cell-based, Staphylococcus aureus. In a few lines:
(§1)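 CLSI broth microdilution: strains inoculated at about 10^5 CUF/[…] in Mueller-Hinton broth with 0.85% NaCl, incubated 35° C. for 24 hours. MIC read as lowest inhibitory concentration; measured three times.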

The test system of series [3] is MRSA OM481. The series is described as above. The format is cell-based, Staphylococcus aureus. The conditions noted are these: for MIC MRSA OM481: Mueller-Hinton broth, 35° C., 24 hours. Put shortly:
as §1

The subject of series [4] is VISA Mu50. The description is as above. The format is cell-based, Staphylococcus aureus. The conditions noted are these: for MIC VISA Mu50: Mueller-Hinton broth, 35° C., 24 hours. Put shortly:
as §1

Series [5] deals with MRSA N315. Described as above. The format is cell-based, Staphylococcus aureus. The conditions noted are these: for MIC MRSA N315: Mueller-Hinton broth, 35° C., 24 hours. In a few lines: as §1
In series [6] the test system is MSSA FDA 209P. Described as above. The conditions noted are these: for MIC MSS 209P: MSSA FDA 209P, Mueller-Hinton broth, 35° C., 24 hours. In kind it is cell-based, Staphylococcus aureus. In a few lines:
as §1

Series [7] has as its system VRE FN-1. Described as above. In kind it is cell-based, enterococci. The conditions noted are these: for MIC VRE FN-1: Mueller-Hinton broth, 35° C., 24 hours. In a few lines: as §1
For series [8], the system named is VRE NCTC12201. Described as above. The conditions noted are these: for MIC VRE NCTC 12201: VRE NCTC12201, Mueller-Hinton broth, 35° C., 24 hours. In kind it is cell-based, enterococci. Put shortly:
as §1

Series [9] deals with T1, DNA gyrase of Escherichia coli (Escherichia coli, UniProt P0AES4+P0AES6).
T1 construct: purchased John Innes Enterprises #K0001
Put plainly: DNA gyrase inhibition (supercoiling assay kit), Exp. Ex. 1-2. The conditions noted are these: for Gyrase inhibitory activity IC50: E. coli DNA gyrase supercoiling, relaxed pBR322, 37° C., 30 minutes. In kind it is biochemical. Put shortly:
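Relaxed pBR322 DNA […] supercoiled by 1 U E. coli gyrase for 30 min at 37 °C in 35 mM Tris-HCl pH 7.5, 24 mM KCl, 4 mM MgCl2, 2 mM DTT, 1.8 mM spermidine, 1 mM ATP, 6.5% glycerol, 0.1 mg/ml BSA. Products resolved by gel electrophoresis; IC50 determined.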

Series [10] can be described thus: Acute toxicity evaluation experiment. The conditions noted are these: ICR mice, observed over 7 days, four mice.
Description: (§3) An acute toxicity test of the compound of the present invention was carried out using ICR mice as experimental animals.
For series [11] the following is noted: mouse, in vivo, 10 mg/kg.
Description: as §3
In series [12] the test system is Vancomycin-resistant enterococci NCTC 12201. Briefly: In vitro infectivity assay (MIC), Exp. Ex. 2-1. The format is cell-based. The conditions noted are these: Enterococcus, NCTC 12201 / VRE, 24 h, read-out: MIC VRE NCTC 12201. In a few lines:
(§2)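 Broth microdilution per CLSI: strains inoculated at about 10^5 CUF/[…] into Mueller-Hinton broth containing 0.85% NaCl, incubated 35° C for 24 hours. MIC taken as lowest inhibitory concentration; measured three times.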

Series [13] has as its system Vancomycin-resistant enterococci FN-1. Put plainly: In vitro infectivity assay (MIC), Exp. Ex. 2-1. The format is cell-based. The conditions noted are these: Enterococcus, VRE, 24 h, read-out: MIC VRE FN-1. In a few lines: as §2
Series [14] has as its system Vancomycin intermediate-resistant Staphylococcus aureus Mu50. Briefly: In vitro infectivity assay (MIC), Exp. Ex. 2-1. The conditions noted are these: Staphylococcus aureus, VISA, 24 h, read-out: MIC VISA Mu50. The format is cell-based. In a few lines: as §2
Series [15] relates to Methicillin-resistant S. aureus COL. Briefly: In vitro infectivity assay (MIC), Exp. Ex. 2-1. The conditions noted are these: Staphylococcus aureus, MRSA, 24 h, read-out: MIC MRSA COL. In kind it is cell-based.
In series [16] the test system is Methicillin-resistant S. aureus N315. Put plainly: In vitro infectivity assay (MIC), Exp. Ex. 2-1. The conditions noted are these: Staphylococcus aureus, MRSA, 24 h, read-out: MIC MRSA N315. The format is cell-based, Staphylococcus aureus. In a few lines:
as §2

Series [17] deals with Methicillin-resistant S. aureus OM481. Put plainly: In vitro infectivity assay (MIC), Exp. Ex. 2-1. The format is cell-based, Staphylococcus aureus. The conditions noted are these: Staphylococcus aureus, MRSA, 24 h, read-out: MIC MRSA OM481. Put shortly: as §2
For series [18], the system named is Methicillin sensitive S. aureus 209P. Briefly: In vitro infectivity assay (MIC), Exp. Ex. 2-1. The conditions noted are these: Staphylococcus aureus, 209P / MSSA, 24 h, read-out: MIC MSSA 209P. In kind it is cell-based, Staphylococcus aureus. In a few lines: as §2
Series [19] relates to Methicillin-resistant S. aureus OM584. Put plainly: In vitro infectivity assay (MIC), Exp. Ex. 2-1. In kind it is cell-based, Staphylococcus aureus. The conditions noted are these: Staphylococcus aureus, MRSA, 24 h, read-out: MIC MRSA OM584. Put shortly:
as §2

For series [20], the system named is Streptococcus pneumoniae R6. Briefly: In vitro infectivity assay (MIC), Exp. Ex. 2-1. The conditions noted are these: Streptococcus pneumoniae, R6, 24 h, read-out: MIC S. Pneumoniae R6. In kind it is cell-based.

T1 sequence (P0AES4 whole entry, one chain of several): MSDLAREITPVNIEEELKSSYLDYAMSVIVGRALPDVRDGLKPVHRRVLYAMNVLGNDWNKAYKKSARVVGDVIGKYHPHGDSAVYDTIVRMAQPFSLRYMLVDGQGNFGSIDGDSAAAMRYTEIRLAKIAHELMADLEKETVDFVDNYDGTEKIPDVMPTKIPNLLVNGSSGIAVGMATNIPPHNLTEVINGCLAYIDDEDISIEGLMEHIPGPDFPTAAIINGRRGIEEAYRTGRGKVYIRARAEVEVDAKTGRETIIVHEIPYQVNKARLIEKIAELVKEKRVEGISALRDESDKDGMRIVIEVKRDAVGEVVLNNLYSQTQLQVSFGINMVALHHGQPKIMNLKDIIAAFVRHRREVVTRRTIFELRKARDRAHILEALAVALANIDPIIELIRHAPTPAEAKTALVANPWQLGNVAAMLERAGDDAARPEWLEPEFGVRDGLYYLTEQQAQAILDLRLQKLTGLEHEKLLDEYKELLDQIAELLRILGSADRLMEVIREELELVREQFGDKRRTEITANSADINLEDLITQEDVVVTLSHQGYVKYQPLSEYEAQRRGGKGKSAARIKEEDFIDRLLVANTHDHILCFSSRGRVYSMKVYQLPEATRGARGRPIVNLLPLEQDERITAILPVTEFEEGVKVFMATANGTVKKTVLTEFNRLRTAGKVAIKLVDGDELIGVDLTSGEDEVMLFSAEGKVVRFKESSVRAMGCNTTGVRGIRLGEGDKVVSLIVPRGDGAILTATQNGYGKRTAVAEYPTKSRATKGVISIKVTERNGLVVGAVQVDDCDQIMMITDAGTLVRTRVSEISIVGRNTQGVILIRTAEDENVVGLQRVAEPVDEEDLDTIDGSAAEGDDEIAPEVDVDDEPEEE

As to “2-(3′,4′-Dihydroxy)-5,7-dihydroxy-3-β-D-(2″,3″-di-p-flurobenzyloxy)glucosyl-4H-chromen-4-one [Compound 15h]”, the “Antibacterial activities against the vancomycin resistant bacteria such as VRE and VISA (in words)” value (“Antibacterial activities” for short) in [1] was “strong antibacterial activities”. Besides, in series [2], the “MIC MRSA OM58” value was found to be 8 mg/L. The “MIC MRSA OM481” value in series [3] turned out to be 8 mg/L. Further, the “MIC VISA Mu50” value in series [4] was determined as 2 mg/L. In series [5], the “MIC MRSA N315” value was determined as 2 mg/L. The “MIC MSS 209P” value in series [6] turned out to be 2 mg/L. Also, the “MIC VRE FN-1” value in [7] was 8 mg/L. Further, the “MIC VRE NCTC 12201” value in series [8] came out at 8 mg/L.

For `Cc1ccc(CCC(=O)O[C@H]2[C@H](Oc3c(-c4ccc(O)c(O)c4)oc4cc(O)cc(O)c4c3=O)O[C@H](CO)[C@@H](O)[C@@H]2OC(=O)CCc2ccc(C)cc2)cc1` [Compound 15c, 2-(3′,4′-Dihydroxy)-5,7-dihydroxy-3-β-D-(2″,3″-di-p-methylphenylethylcarboxy)glucosyl-4H-chromen-4-one], the “Antibacterial activities” value in [1] is listed as “strong antibacterial activities”. For the same molecule, the “MIC MRSA OM58” value in [2] stood at 2 mg/L (≈ 2.64 µM). Moreover, in series [3], the “MIC MRSA OM481” value turned out to be 2 mg/L (≈ 2.64 µM). Moreover, in series [4], the “MIC VISA Mu50” value is 1 mg/L (≈ 1.32 µM). The “MIC MRSA N315” value in series [5] was determined as 1 mg/L (≈ 1.32 µM). In [6], the “MIC MSS 209P” value amounted to 1 mg/L (≈ 1.32 µM). The “Gyrase inhibitory activity IC50” value in series [9] was 3.50 mg/L. In series [7], the “MIC VRE FN-1” value worked out at 2 mg/L (≈ 2.64 µM). Moreover, the “MIC VRE NCTC 12201” value in series [8] stood at 4 mg/L (≈ 5.29 µM).

With `O=C(CCc1ccc(F)cc1)O[C@H]1[C@H](Oc2c(-c3ccc(O)c(O)c3)oc3cc(O)cc(O)c3c2=O)O[C@H](CO)[C@@H](O)[C@@H]1OC(=O)CCc1ccc(F)cc1` [Compound 15d, 2-(3′,4′-Dihydroxy)-5,7-dihydroxy-3-β-D-(2″,3″-di-p-flurophenylethylcarboxy)glucosyl-4H-chromen-4-one], the results for the Mortality result in series [10] (10 mg/kg for 4 consecutive days) and in series [10] (100 mg/kg for 4 consecutive days) were “All the mice were not dead until day 7” and “all the mice in the group were dead on days 5 to 7 after administration”, respectively. The “Changes in the body weights” value in series [11] was “the body weights were slightly reduced from the day after administration, but the body weights of all the four mice were recovered from about day 5 after administration”. Also, the “Antibacterial activities” value in series [1] is given as “strong antibacterial activities”. Moreover, the “MIC MRSA OM58” value in series [2] came to 2 mg/L (≈ 2.62 µM). The “MIC MRSA OM481” value in series [3] was determined as 2 mg/L (≈ 2.62 µM). The “MIC VISA Mu50” value in [4] came out at 1 mg/L (≈ 1.31 µM). Also, the “MIC MRSA N315” value in series [5] came out at 0.25 mg/L (≈ 0.327 µM). Further, the “MIC MSS 209P” value in [6] stood at 0.25 mg/L (≈ 0.327 µM). Further, the “Gyrase inhibitory activity IC50” value in series [9] was found to be 0.22 mg/L. The “Gyrase inhibitory effect compared with norfloxacin (in words)” value in series [9] (summary of Table 2) is recorded as “inhibitory effect equal to or greater than that of an existing gyrase inhibitor such as norfloxacin”. Besides, the “MIC VRE FN-1” value in series [7] was determined as 1 mg/L (≈ 1.31 µM). The “MIC VRE NCTC 12201” value in series [8] was determined as 1 mg/L (≈ 1.31 µM).

Take `CN[C@H](CC(C)C)C(=O)N[C@H]1C(=O)N[C@@H](CC(N)=O)C(=O)N[C@H]2C(=O)N[C@H]3C(=O)N[C@H](C(=O)N[C@H](C(=O)O)c4cc(O)cc(O)c4-c4cc3ccc4O)[C@H](O)c3ccc(c(Cl)c3)Oc3cc2cc(c3O[C@@H]2O[C@H](CO)[C@@H](O)[C@H](O)[C@H]2O[C@H]2C[C@](C)(N)[C@H](O)[C@H](C)O2)Oc2ccc(cc2Cl)[C@H]1O` [Vancomycin, vancomycin, reference compound]: the MIC is over 128 mg/L in series [12]; over 128 mg/L in series [13]; 8 mg/L (≈ 5.52 µM) in series [14]; 0.25 mg/L (≈ 0.173 µM) in series [2] (Staphylococcus aureus, MRSA, 24 h, read-out: MIC MRSA OM58); 0.25 mg/L (≈ 0.173 µM) in series [3] (Staphylococcus aureus, MRSA, 24 h, read-out: MIC MRSA OM481); 8 mg/L (≈ 5.52 µM) in series [4] (Staphylococcus aureus, VISA, 24 h, read-out: MIC VISA Mu50). For the same molecule, the MIC in series [5] (Staphylococcus aureus, MRSA, 24 h, read-out: MIC MRSA N315) is 0.25 mg/L (≈ 0.173 µM); in series [6] (Staphylococcus aureus, 24 h, read-out: MIC MSS 209P) it was 0.25 mg/L (≈ 0.173 µM); in series [7] (Enterococcus, VRE, 24 h, read-out: MIC VRE FN-1) it was over 128 mg/L; in [8] (Enterococcus, 24 h, read-out: MIC VRE NCTC12201), over 128 mg/L; in [15] it was 0.25 mg/L (≈ 0.173 µM); in series [16], 0.25 mg/L (≈ 0.173 µM). The MIC in series [17], in series [18], in series [19] and in series [20] was 0.25 mg/L (≈ 0.173 µM) throughout.
